Patent publication US7268245B2, “Multinuclear platinum compounds” (Sonus Pharmaceuticals, Inc., priority 2004, dated 2007)
Like-named read-outs stand apart in the source and are kept apart here.

Columns and labels:
Assay type in all cases: cell-based
[1] = tested on: A2780/DDPT ovarian cancer cell line (platinum resistant); assay: MTS cell viability assay, growth inhibition, A2780/DDPT
Procedure: (§1) Cytotoxicity was measured in six cell lines: two colorectal carcinoma cell lines (HT29 and HCT-116); two small cell lung cancer cell lines (NCI-H69 and NCI-H69/AR); and two ovarian cancer cell lines (A2780 and A2780/DPPt). Viable cell number was measured using the MTS cell viability assay ([…] 96 AQueous One Solution Cell Proliferation Assay kit available from Promega, US). […] Cisplatin was prepared in saline. […] All tumor lines were propagated under sterile conditions and incubated at 37° C. in HEPA-filtered CO2 tissue culture incubators with 5% CO2 and 95% humidity in colorless RPMI 1640 medium (Mediatech, Herndon, Va.) containing 5% fetal bovine serum (complete medium). The ovarian and colon tumor cell lines were plated in microtiter plates at a density of 5,000 cells per well. The lung lines were plated at a density of 10,000 cells per well. Viable cell number was measured by the MTS dye conversion assay after a total of 72 hours of treatment. […] The plates were incubated for four hours at 37° C. The absorbance was measured at 490 nm on a Coulter microplate reader.

[2] = tested on: A2780 ovarian cancer cell line; assay: MTS cell viability assay, growth inhibition, A2780; details: A2780 cells
Procedure: as §1

[3] = tested on: NCI-H69 small cell lung cancer cell line; assay: MTS cell viability assay, growth inhibition, NCI-H69; details: NCI-H69 cells, 72 hours of treatment
Procedure: as §1

[4] = tested on: HT29 colorectal carcinoma cell line; assay: MTS cell viability assay, growth inhibition, HT29; details: HT29 cells, 72 hours of treatment
Procedure: as §1

[5] = tested on: HCT-116 colorectal carcinoma cell line; assay: MTS cell viability assay, growth inhibition, HCT-116; details: HCT-116 cells, 72 hours of treatment
Procedure: as §1

[6] = tested on: NCI-H69/AR small cell lung cancer cell line; assay: MTS cell viability assay, growth inhibition, NCI-H69/AR; details: NCI-H69/AR cells, 72 hours of treatment
Procedure: as §1

[7] = A2780 (platinum resistant) cells, method of Example 10 (text of Examples 8 and 9), read-out: GI50 for A2780 (platinum resistant)
[8] = method of Example 10 (text of Examples 8 and 9), read-out: GI50 for A2780
[9] = A2780/DDPT cells, 72 hours of treatment, MTS, read-out: Growth Inhibition (GI50) A2780/DDPT
[10] = 72 hours of treatment, MTS, read-out: Growth Inhibition (GI50) A2780

Compound	GI50 [1, 7]	GI50 [2, 8]	GI50 [1, 9]	GI50 [2, 10]	GI50 [3]	GI50 [4]	GI50 [5]	GI50 [6]
diethylenetriamine-N,N,N′,N″,N″-pentaacetic-acid-triplatinum [DTPA-triplatinum]	63 µM	19 µM	–	–	–	–	–	–
triethylenetetraamine-N,N,N′,N″,N′″,N′″-hexaacetic-acid-tetraplatinum [TTHA-tetraplatinum]	50 µM	7 µM	–	–	–	–	–	–
triethylene-tetraamine-N,N,N′,N″,N′″,N′″-hexaacetic-acid-diplatinum [TTHA-diplatinum]	–	–	48 µM	7.1 µM	9.3 µM	53 µM	23 µM	16 µM
N.N.[Cl][Pt][Cl] [Cisplatin, cis-diaminedichloroplatinum (II), reference compound]	57 µM	15 µM	57 µM	15 µM	15 µM	61 µM	43 µM	15 µM
ethylene glycol-bis-(β-aminoethyl)-N,N,N′,N′-tetraacetic-acid-diplatinum [EGTA-diplatinum]	–	–	–	> 100 µM	> 100 µM	–	> 100 µM	> 100 µM
1,3-Diamino-2-hydroxypropane-N,N,N′,N′-tetraacetic-acid-diplatinum [DAPTA-diplatinum]	–	–	> 100 µM	20 µM	27 µM	> 100 µM	81 µM	21 µM
diethylenetriamine-N,N,N′,N″,N″-pentaacetic-acid-diplatinum [DTPA-diplatinum]	–	–	62 µM	19 µM	18 µM	54 µM	41 µM	23 µM
